In US11618747B2, “LXR modulators with bicyclic core moiety” (OrsoBio, Inc., priority 2018, dated 2023):

What was measured:
[1] = molecular target: T1, LXRβ ligand-binding domain (Homo sapiens, UniProt P55055, DUP175-175); assay: TR-FRETβ activity assay (NCoA3 coactivator peptide recruitment); format: biochemical; details: TR-FRET, 1 μM 24(S)-25-epoxycholesterol prestimulation; read-out: FRETβ (EC50 range)
T1 construct: amino acids 156-461; NP009052; made in house; host or cells: E. coli
T1 sequence (P55055 with tags, fused parts or gaps DUP175-175 limits assumed): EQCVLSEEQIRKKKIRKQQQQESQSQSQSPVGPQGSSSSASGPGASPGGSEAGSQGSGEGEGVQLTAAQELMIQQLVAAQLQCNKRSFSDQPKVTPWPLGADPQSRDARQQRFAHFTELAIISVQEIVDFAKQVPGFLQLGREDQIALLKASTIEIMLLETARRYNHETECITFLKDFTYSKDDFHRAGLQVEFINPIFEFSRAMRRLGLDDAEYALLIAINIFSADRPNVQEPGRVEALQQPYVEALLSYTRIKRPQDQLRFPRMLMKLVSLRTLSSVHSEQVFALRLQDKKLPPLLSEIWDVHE
In short: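 GST-tagged human LXRβ LBD (aa 156-461, E. coli) at 76 nM with 400 nM biotinylated NCoA3 peptide in Tris/HCl pH 6.8, 240 mM KCl, BSA, 0.002% Triton-X-100, plus 1 μM 24(S)-25-epoxycholesterol as prestimulating agonist. Compounds at 50 μM down to 0.002 μM, 1 h at 4 °C. Coactivator recruitment by TR-FRET (Tb cryptate/XL665, 615/665 nm), triplicates.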

[2] = molecular target: T2, ligand-binding domain (LBD) of LXRα (Homo sapiens, UniProt Q13133); assay: LXR Gal4 reporter transient transfection assay (LBD-M2H Gal4α); format: cell-based; details: HEK293 cells, LXRα LBD; read-out: LBD-M2H Gal4α (EC50 range)
T2 construct: expressed in transfected cells; host or cells: HEK293
T2 sequence (Q13133 155-447): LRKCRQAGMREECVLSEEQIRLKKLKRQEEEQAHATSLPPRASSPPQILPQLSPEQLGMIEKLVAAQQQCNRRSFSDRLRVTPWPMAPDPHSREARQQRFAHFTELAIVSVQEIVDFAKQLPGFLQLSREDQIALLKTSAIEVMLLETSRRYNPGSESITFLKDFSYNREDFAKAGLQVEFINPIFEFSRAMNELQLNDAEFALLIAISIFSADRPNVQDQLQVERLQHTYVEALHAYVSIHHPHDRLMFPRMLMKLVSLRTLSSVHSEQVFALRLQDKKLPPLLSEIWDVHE
Experimental: (§1) The tested compounds were usually dissolved, tested and stored as 20 mM stock solutions in DMSO. Since sulfonyl acetic acid derivatives tend to decarboxylate under these conditions, these stock solutions were prepared, tested and stored as 20 mM DMSO stock solutions containing 100 mM trifluoroacetic Acid (5 equivalents). Sulfonyl acetic acid derivatives are shelf stable as solid at rt for long time as reported by Griesbrecht et al. (Synlett 2010:374) or Faucher et al. (J. Med. Chem. 2004; 47:18).
(§2) LXR Gal4 Reporter Transient Transfection Assays
(§3) LXRα and LXRβ activity status was determined via detection of interaction with coactivator and corepressor proteins in mammalian two-hybrid experiments (M2H). For this, via transient transfection the full length (FL) proteins of LXRα (amino acids 1-447; NP005684; SEQ ID NO:1) or LXRβ-(amino acids 1-461; NP009052; SEQ ID NO:2) or the ligand-binding domains (LBD) of LXRα (amino acids 155-447 SEQ ID NO:3) or LXRβ (amino acids 156-461; SEQ ID NO:4) were expressed from pCMV-AD (Stratagene) as fusions to the transcriptional activation domain of NFkB. As cofactors, domains of either the steroid receptor coactivator 1 (SRC1; amino acids 552-887; SEQ ID NO:5) or of the corepressor NCoR (amino acids 1906-2312; NP006302; SEQ ID NO:6) were expressed as fusions to the DNA binding domain of the yeast transcription factor GAL4 (from pCMV-BD; Stratagene). Interaction was monitored via activation of a coexpressed Firefly Luciferase Reporter gene under control of a promoter containing repetitive GAL4 response elements (vector pFRLuc; Stratagene). Transfection efficiency was controlled via cotransfection of constitutively active pRL-CMV Renila reniformis luciferase reporter (Promega). HEK293 cells were grown in minimum essential medium (MEM) with 2 mM L-glutamine and Earle's balanced salt solution supplemented with 8.3% fetal bovine serum, 0.1 mM non-essential amino acids, 1 mM sodium pyruvate, at 37° C. in 5% CO2. 3.5×10^4 cells/well were plated in 96-well cell culture plates in growth medium supplemented with 8.3% fetal bovine serum for 16-20 h to ˜90% confluency. For transfection, medium was taken off and LXR and cofactor expressing plasmids as well as the reporter plasmids are added in 30 μL OPTIMEM/well including polyethylene-imine (PEI) as vehicle. Typical amounts of plasmids transfected/well: pCMV-AD-LXR (5 ng), pCMV-BD-cofactor (5 ng), pFR-Luc (100 ng), pRL-CMV (0.5 ng). Compound stocks were prepared in DMSO, prediluted in MEM to a total volume of 120 μL, and added 4 h after addition of the transfection mixture (final vehicle concentration not exceeding 0.2%). Cells were incubated for additional 16 h, lysed for 10 min in 1× Passive Lysis Buffer (Promega) and Firefly and Renilla luciferase activities were measured sequentially in the same cell extract using buffers containing D-luciferine and coelenterazine, respectively. Measurements of luminescence were done in a BMG-luminometer.

[3] = molecular target: T3, ligand-binding domain (LBD) of LXRβ (Homo sapiens, UniProt P55055, DUP175-175); assay: LXR Gal4 reporter transient transfection assay (LBD-M2H Gal4β); format: cell-based; details: HEK293 cells, LXRβ LBD; read-out: LBD-M2H Gal4β (EC50 range)
T3 construct: LXRβ (amino acids 156-461); expressed in transfected cells; host or cells: HEK293
T3 sequence (P55055 with tags, fused parts or gaps DUP175-175 limits assumed): T1 sequence (P55055 with tags, fused parts or gaps DUP175-175 limits assumed)
Experimental: as §1, §2, §3

Row | SMILES | EC50 [1] [nM] | EC50 [2] [nM] | EC50 [3] [nM]
1 | Cc1ccc(S(=O)(=O)n2c(-c3cc(C4CC4C(=O)O)cs3)c(-c3ccsc3C#N)c3ccccc32)cc1 (stereo not drawn) [3/17] | 1000 to 10000 | 100 to 1000 | < 100
2 | Cc1ccc(S(=O)(=O)n2c(-c3cccc(/C=C/C(=O)O)c3)c(-c3ccsc3C#N)c3ccccc32)cc1 [3/18] | 1000 to 10000 | 100 to 1000 | < 100
3 | Cc1ccc(S(=O)(=O)n2c(-c3ccc(/C=C/C(=O)O)s3)c(-c3ccsc3C#N)c3ccccc32)cc1 [3/19] | 1000 to 10000 | 100 to 1000 | 100 to 1000
4 | Cc1ccc(S(=O)(=O)n2c(-c3cccc(C(C)(C)C(=O)O)c3)c(-c3ccsc3C#N)c3ccccc32)cc1 [3/20] | 1000 to 10000 | 100 to 1000 | < 100
5 | N#Cc1sccc1-c1c(-c2cccc(OCC(=O)O)c2)n(S(=O)(=O)c2ccc(Cl)cc2)c2ccccc12 [3/51] | 1000 to 10000 | 100 to 1000 | 100 to 1000
6 | N#Cc1sccc1-c1c(-c2cccs2)n(S(=O)(=O)c2ccc(Cl)cc2)c2cc(O)ccc12 [13/1] | 1000 to 10000 | < 100 | < 100
7 | N#Cc1sccc1-c1c(-c2cccs2)n(S(=O)(=O)c2ccc(Cl)cc2)c2ccc(OCCCC(=O)O)cc12 [15/1] | 1000 to 10000 | 100 to 1000 | 100 to 1000
8 | N#Cc1sccc1-c1c(-c2cccs2)n(S(=O)(=O)c2ccc(Cl)cc2)c2ccc(OCCCCC(=O)O)cc12 [15/2] | > 10000 | 100 to 1000 | 100 to 1000
9 | N#Cc1sccc1-c1c(-c2cccs2)n(S(=O)(=O)c2ccc(Cl)cc2)c2cc(OCCCC(=O)O)ccc12 [15/4] | 1000 to 10000 | 100 to 1000 | < 100
10 | N#Cc1sccc1-c1c(-c2cccs2)n(S(=O)(=O)c2ccc(Cl)cc2)c2cc(OCCCCC(=O)O)ccc12 [15/5] | 1000 to 10000 | < 100 | < 100
11 | N#Cc1ccncc1-c1c(-c2cccs2)n(S(=O)(=O)c2ccc(Cl)cc2)c2ccccc12 [20/2] | 1000 to 10000 | 100 to 1000 | < 100
12 | O=S(=O)(c1ccc(Cl)cc1)n1c(-c2cccs2)c(-c2ccsc2C(F)F)c2ccccc21 [20/3] | 100 to 1000 | < 100 | < 100
13 | N#Cc1cscc1-c1c(-c2cccs2)n(S(=O)(=O)c2ccc(Cl)cc2)c2ccccc12 [20/4] | 1000 to 10000 | < 100 | < 100
14 | CS(=O)(=O)c1ccccc1-c1c(-c2cccs2)n(S(=O)(=O)c2ccc(Cl)cc2)c2ccccc12 [20/5] | 1000 to 10000 | 100 to 1000 | 100 to 1000
15 | N#Cc1cc(F)ccc1-c1c(-c2cccs2)n(S(=O)(=O)c2ccc(Cl)cc2)c2ccccc12 [20/6] | 100 to 1000 | 100 to 1000 | < 100
16 | N#Cc1nccnc1-c1c(-c2cccs2)n(S(=O)(=O)c2ccc(Cl)cc2)c2ccccc12 [20/7] | 1000 to 10000 | 100 to 1000 | < 100
17 | N#Cc1sccc1-c1c(-c2cccs2)n(S(=O)(=O)c2ccc(F)cc2)c2ccccc12 [20/11] | 100 to 1000 | < 100 | < 100
